15 compounds from patent publication US11078216B2, “Bisaryl amides as NRF2 activators” (GLAXOSMITHKLINE INTELLECTUAL PROPERTY DEVELOPMENT LIMITED, priority 2016, dated 2021) can be followed below.

The assay has as its system NRF2 (NQO1 activity as marker for NRF2 activation), BEAS-2B cells. In words: BEAS-2B NQO1 MTT Assay. Type of assay: cell-based. The settings on record: Homo sapiens, EC50 of NQO1 specific activity induction, 48 hours incubation, read-out: EC50. In short, it runs like this:
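BEAS-2B cells were exposed to compound for 48 h at 37° C, 5% CO2, then lysed. NQO1 activity was measured kinetically by MTT reduction at 570 nm over 30 minutes; EC50 came from 3-parameter fit of Delta OD/min versus log concentration.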

As for `CCn1nnc2c(C)c([C@@H](CC(=O)Nc3cccnc3)c3ccc(C)c(CN4C[C@@H](C)Cc5ccc(C(F)(F)F)cc5S4(=O)=O)c3)ccc21` [Example 174, (S)-3-(1-ethyl-4-methyl-1H-benzo[d][1,2,3]triazol-5-yl)-3-(4-methyl-3-(((S)-4-methyl-1,1-dioxido-8-(trifluoromethyl)-4,5-dihydrobenzo[f][1,2]thiazepin-2(3H)-yl)methyl)phenyl)-N-(pyridin-3-yl)propanamide], the 50% effective concentration (EC50) lay in the range of 10 to 100 nM.
Take `CCC1CCN(Cc2nccn2Cc2cc([C@@H](c3ccc4c(nnn4C)c3C)C(C)(C)C(=O)Nc3cccnc3)ccc2Cl)CC1` [Example 175, (S)-3-(4-chloro-3-((2-((4-ethylpiperidin-1-yl)methyl)-1H-imidazol-1-yl)methyl)phenyl)-3-(1,4-dimethyl-1H-benzo[d][1,2,3]triazol-5-yl)-2,2-dimethyl-N-(pyridin-3-yl)propanamide]: the EC50 was in the range of 100 to 1000 nM.
`CC[C@@H]1CN(Cc2cc([C@@H](c3ccc4c(nnn4CC)c3C)[C@@H](C)C(=O)Nc3cccnc3)ccc2C)S(=O)(=O)c2cccnc2O1` [Example 176]: the EC50 fell in the range of 1 to 10 nM.
For `CCn1nnc2c(C)c([C@H](c3ccc(C)c(CN4C[C@@H](C)Cc5cc(C(F)(F)F)ccc5S4(=O)=O)c3)[C@@H](C)C(=O)Nc3cccnc3)ccc21` [Example 177, (2R,3S)-3-(1-ethyl-4-methyl-1H-benzo[d][1,2,3]triazol-5-yl)-2-methyl-3-(4-methyl-3-(((S)-4-methyl-1,1-dioxido-7-(trifluoromethyl)-4,5-dihydrobenzo[f][1,2]thiazepin-2(3H)-yl)methyl)phenyl)-N-(pyridin-3-yl)propanamide], the EC50 lay within 1 to 10 nM.
With `CCn1nnc2c(C)c([C@@H](CC(=O)Nc3cccnc3)c3ccc(C)c(CN4C[C@@H](C)Cc5ccc(F)cc5S4(=O)=O)c3)ccc21` [Example 178, (S)-3-(1-ethyl-4-methyl-1H-benzo[d][1,2,3]triazol-5-yl)-3-(3-(((S)-8-fluoro-4-methyl-1,1-dioxido-4,5-dihydrobenzo[f][1,2]thiazepin-2(3H)-yl)methyl)-4-methylphenyl)-N-(pyridin-3-yl)propanamide], the EC50 lay in the range of 10 to 100 nM.
`CCn1nnc2c(C)c([C@H](c3ccc(C)c(CN4C[C@@H](C)Cc5ccc(C(F)(F)F)cc5S4(=O)=O)c3)[C@@H](C)C(=O)Nc3cccnc3)ccc21` [Example 179, (2R,3S)-3-(1-ethyl-4-methyl-1H-benzo[d][1,2,3]triazol-5-yl)-2-methyl-3-(4-methyl-3-(((S)-4-methyl-1,1-dioxido-8-(trifluoromethyl)-4,5-dihydrobenzo[f][1,2]thiazepin-2(3H)-yl)methyl)phenyl)-N-(pyridin-3-yl)propanamide]: the half-maximal effective concentration (EC50) fell in the range of 1 to 10 nM.
The same measure for `CC[C@H]1Cc2ccc(C(F)(F)F)cc2S(=O)(=O)N(Cc2cc([C@@H](c3ccc4c(nnn4CC)c3C)[C@@H](C)C(=O)Nc3cccnc3)ccc2C)C1` [Example 180, (2R,3S)-3-(3-(((S)-4-ethyl-1,1-dioxido-8-(trifluoromethyl)-4,5-dihydrobenzo[f][1,2]thiazepin-2(3H)-yl)methyl)-4-methylphenyl)-3-(1-ethyl-4-methyl-1H-benzo[d][1,2,3]triazol-5-yl)-2-methyl-N-(pyridin-3-yl)propanamide]: 1 to 10 nM; for `CCn1nnc2c(C)c([C@@H](CC(=O)Nc3cccnc3)c3ccc(C)c(CN4C[C@@H](C)Cc5ccc(C(F)(F)F)cc5S4(=O)=O)c3)cc(OC)c21` [Example 181, (S)-3-(1-ethyl-7-methoxy-4-methyl-1H-benzo[d][1,2,3]triazol-5-yl)-3-(4-methyl-3-(((S)-4-methyl-1,1-dioxido-8-(trifluoromethyl)-4,5-dihydrobenzo[f][1,2]thiazepin-2(3H)-yl)methyl)phenyl)-N-(pyridin-3-yl)propanamide]: 10 to 100 nM; for `CC[C@@H]1CN(Cc2cc([C@@H](c3ccc4c(nnn4CC)c3C)[C@@H](C)C(N)=O)ccc2C)Cc2ncccc2O1` [Example 182, (2R,3S)-3-(3-(((R)-2-ethyl-2,3-dihydropyrido[2,3-f][1,4]oxazepin-4(5H)-yl)methyl)-4-methylphenyl)-3-(1-ethyl-4-methyl-1H-benzo[d][1,2,3]triazol-5-yl)-2-methylpropanamide]: 100 to 1000 nM.
For the compound `CC[C@H]1Cc2cccc(C(F)(F)F)c2CN(Cc2cc([C@@H](c3ccc4c(nnn4CC)c3C)C(C)(C)C(N)=O)ccc2C)C1` [Example 183, (S)-3-(1-ethyl-4-methyl-1H-benzo[d][1,2,3]triazol-5-yl)-3-(3-(((S)-4-ethyl-9-(trifluoromethyl)-4,5-dihydro-1H-benzo[c]azepin-2(3H)-yl)methyl)-4-methylphenyl)-2,2-dimethylpropanamide], the EC50 lay in the range of 100 to 1000 nM.
The same measure for `CC[C@@H]1CN(Cc2cc([C@@H](c3ccc4c(nnn4CC)c3C)C(C)(C)C(N)=O)ccc2C)Cc2ncccc2O1` [Example 184, (S)-3-(3-(((R)-2-ethyl-2,3-dihydropyrido[2,3-f][1,4]oxazepin-4(5H)-yl)methyl)-4-methylphenyl)-3-(1-ethyl-4-methyl-1H-benzo[d][1,2,3]triazol-5-yl)-2,2-dimethylpropanamide]: 100 to 1000 nM.
In the case of `CC[C@@H]1CN(Cc2cc([C@@H](CCc3cn(C4CCC4)nn3)C(C)(C)C(N)=O)ccc2Cl)S(=O)(=O)c2ccccc2O1` [Example 185, (R)-3-(4-chloro-3-(((R)-4-ethyl-1,1-dioxido-3,4-dihydro-2H-benzo[b][1,4,5]oxathiazepin-2-yl)methyl)phenyl)-5-(1-cyclobutyl-1H-1,2,3-triazol-4-yl)-2,2-dimethylpentanamide], the EC50 lay in the range of 100 to 1000 nM.
Take `CC[C@@H]1CN(Cc2cc([C@@H](c3ccc4c(nnn4CC)c3C)C(C)(C)C(=O)Nc3cnc(CO[Si](C)(C)C(C)(C)C)nc3)ccc2C)S(=O)(=O)c2ccccc2O1` [Example 186, (S)—N-(2-(((tert-Butyldimethylsilyl)oxy)methyl)pyrimidin-5-yl)-3-(3-(((R)-4-ethyl-1,1-dioxido-3,4-dihydro-2H-benzo[b][1,4,5]oxathiazepin-2-yl)methyl)-4-methylphenyl)-3-(1-ethyl-4-methyl-1H-benzo[d][1,2,3]triazol-5-yl)-2,2-dimethylpropanamide]: the concentration giving a half-maximal response (EC50) was 100 to 1000 nM.
Regarding `CC[C@@H]1CN(Cc2cc([C@@H](c3ccc4c(nnn4CC)c3C)C(C)(C)C(=O)Nc3cnc(C(C)(C)O[Si](C)(C)C(C)(C)C)nc3)ccc2C)S(=O)(=O)c2ccccc2O1` [Example 187, (S)-N-(2-(2-((tert-Butyldimethylsilyl)oxy)propan-2-yl)pyrimidin-5-yl)-3-(3-(((R)-4-ethyl-1,1-dioxido-3,4-dihydro-2H-benzo[b][1,4,5]oxathiazepin-2-yl)methyl)-4-methylphenyl)-3-(1-ethyl-4-methyl-1H-benzo[d][1,2,3]triazol-5-yl)-2,2-dimethylpropanamide], the EC50 is 1000 to 10000 nM.
For `CC[C@@H]1CN(Cc2cc([C@@H](c3ccc4c(nnn4CC)c3C)C(C)(C)C(=O)Nc3cnc(CNC(=O)OC(C)(C)C)nc3)ccc2C)S(=O)(=O)c2ccccc2O1` [Example 188, tert-Butyl ((5-((S)-3-(3-(((R)-4-ethyl-1,1-dioxido-3,4-dihydro-2H-benzo[b][1,4,5]oxathiazepin-2-yl)methyl)-4-methylphenyl)-3-(1-ethyl-4-methyl-1H-benzo[d][1,2,3]triazol-5-yl)-2,2-dimethylpropanamido)pyrimidin-2-yl)methyl)carbamate], the EC50 was 10 to 100 nM.
